Assays:
[1] = test system: F4ac-expressing E. coli strain GIS 26; experiment: In vitro villous adhesion assay after treatment of porcine villi with agents (control strain); format: cell-based, Escherichia coli; conditions: villi treated 1 h at room temperature; 1% Triton X-100; 10 mM NaIO4 in 0.2M sodium acetate pH 4.5
From the text: (§1) The nature of the F18R on porcine small intestinal villous enterocytes was investigated using an in vitro villous adhesion inhibition assay (Cox, E., Houvenaghel, A., 1993. Vet. Microbiol. 34(1), 7-18; Verdonck, F., Cox, E., van Gog, K., Van der Stede, Y., Duchateau, L., Deprez, P., Goddeeris, B. M., 2002. Vaccine 20(23-24), 2995-3004). Briefly, a 20 cm intestinal segment was collected from the mid jejunum of a euthanized pig, rinsed three times with ice cold PBS, and fixed with Krebs-Henseleit buffer (160 mM, pH 7.4) containing 1% (v/v) formaldehyde for 30 min at 4° C. Thereafter, the villi were gently scraped from the mucosae with a glass slide and stored in Krebs-Henseleit buffer at 4° C. Treatment of villi with acetone, methanol, 1% Triton® X-100, 10 mM NaIO4 in 0.2M sodium acetate, pH 4.5, or 0.2M sodium acetate, pH 4.5, without NaIO4, respectively, was performed at room temperature on a rotating wheel in a volume of 500 μl during 1 h. Next, the villi were washed 6 times with Krebs-Henseleit buffer followed by addition of 4×10^8 bacteria of the F18 positive reference E. coli strain (107/86), or the F4ac-expressing E. coli strain GIS 26, to an average of 50 villi in a total volume of 500 μl PBS, supplemented with 1% (w/v) D-mannose in order to prevent adhesion mediated by type 1 pili. These mixtures were incubated at room temperature for 1 h while being gently shaken. Villi were examined by phase-contrast microscopy at a magnification of 600, and the number of bacteria adhering along 50 μm brush border was quantitatively evaluated by counting the number of adhering bacteria at 20 randomly selected places, after which the mean bacterial adhesion was calculated.
(§2) To examine the character of the F18R, intestinal villi isolated from four pigs were treated with different agents that affect lipids or carbohydrates on the enterocyte cell membrane. Treatment was followed by assessment of adhesion of F18-fimbriated E. coli to the villus epithelium.

[2] = test system: F18 positive reference E. coli strain (107/86); experiment: In vitro villous adhesion assay after treatment of porcine villi with agents; format: cell-based, Escherichia coli; conditions: villi of four pigs treated 1 h at room temperature; 1% Triton X-100; 10 mM NaIO4 in 0.2M sodium acetate pH 4.5
From the text: as §1, §2

Compound | Adhesion of control F4ac-fimbriated E. coli strain to porcine intestinal villi after treatment of the villi [1] | Adhesion of F18-fimbriated E. coli to porcine intestinal villi after treatment of the villi [2]
Triton® X-100 | no or only little effect | completely abolished
CC(C)=O [acetone] | no or only little effect | completely abolished

Source: US8703722B2, “Inhibitors of F18+ E coli binding” (priority 2008, dated 2014)
